{"source": "patent US20250161396A1", "about": "“COMPOSITION AND METHOD FOR IMPROVING LIPID METABOLISM FUNCTION OF SUBJECT” (NANJING NUTRABUILDING BIO-TECH CO., LTD., priority 2022, published 2025)", "format_in_all_cases": "in vivo", "key": {"high fat diet (HFD) mice [1]": {"system": "high fat diet (HFD) mice", "assay": "Body weight of high fat diet mice after 16 weeks of treatment", "description": "(§1) Mice were divided into five groups: one group was normal diet mice as ND control group; one group of high fat diet (HFD) mice were gavaged with no-active-ingredients water as HFD control group, one group of HFD mice were treated with BAIBA (65 mg/kg/day) alone by gavage as HFD+BAIBA group, one group of HFD mice were treated with GP (5.2 mg/kg/day) alone by gavage as HFD+GP group, and one group of HFD mice were treated with BAIBA (65 mg/kg/day) and GP (5.2 mg/kg/day) combination by gavage as HFD+BAIBA+GP group, all for 16 weeks.\nAt the beginning of treatment (baseline), the body weights of the five groups of mice were the same."}, "high fat diet (HFD) mice [2]": {"system": "high fat diet (HFD) mice", "assay": "Body fat mass of high fat diet mice after 16 weeks of treatment", "description": "as §1\nAdipose tissue was collected, fixed with 10% formalin, embedded in paraffin, and dehydrated by graded alcohol. Tissue sections with a thickness of 5 μm were prepared, stained with hematoxylin-eosin (H&E) and observed under an optical microscope with a magnification of 200 times. The body fat mass of each group of mice was measured and recorded."}, "high fat diet (HFD) mice [3]": {"system": "high fat diet (HFD) mice", "assay": "Oral glucose tolerance test (OGTT)", "conditions": "8th week", "description": "as §1\n(§2) At the 8th week after the initial experiment, oral glucose tolerance test (OGTT) and insulin tolerance test (ITT) were performed on mice. OGTT is as follows: Blood from tail tip of mice was taken to detect blood glucose, and glucose (1.5 g/kg) was given by gavage after overnight fasting, and blood glucose was monitored with a blood glucose meter before administration and 15, 30, 60, 90 and 120 minutes after administration. ITT is as follows: Insulin (0.75 U/kg) was given by intraperitoneal injection on an empty stomach, and blood glucose was monitored with a blood glucose meter before administration and 15, 30, 60, 90 and 120 minutes after administration."}, "high fat diet (HFD) mice [4]": {"system": "high fat diet (HFD) mice", "assay": "Insulin tolerance test (ITT)", "conditions": "8th week", "description": "as §1, §2\nAs shown in Table 2 and FIG. 3B, after 15 minutes, the blood glucose level of mice in HFD control group decreased greatly, and the blood glucose level before and after the end of insulin half-life was higher than that in other groups. […] It can be seen that the combination of BAIBA and GP can reduce the insulin resistance of mice, that is, improve the insulin sensitivity."}, "high fat diet (HFD) mice [5]": {"system": "high fat diet (HFD) mice", "assay": "Serum triglyceride (TG) level by commercial kit", "conditions": "after 16 weeks of gavage", "description": "as §1\n(§3) After the mice were killed, the serum was extracted by centrifugation, and the levels of triglyceride (TG) and total cholesterol (TC) in mice were measured by using commercial kits according to the instructions and recorded."}, "high fat diet (HFD) mice [6]": {"system": "high fat diet (HFD) mice", "assay": "Serum total cholesterol (TC) level by commercial kit", "conditions": "after 16 weeks of gavage", "description": "as §1, §3"}, "high fat diet (HFD) mice [7]": {"system": "high fat diet (HFD) mice", "assay": "Serum leptin level by ELISA kit", "conditions": "after 16 weeks of gavage", "description": "as §1\nThe serum of mice was centrifuged, and the level of leptin in serum was determined by ELISA kit. According to the concentration value and light absorption value of leptin, the logarithmic value was taken as a standard curve, and the concentration value of leptin was converted according to the standard curve."}, "[8]": {"conditions": "gavage, BAIBA 65 mg/kg/day and/or GP 5.2 mg/kg/day, after 16 weeks"}, "[9]": {"conditions": "versus HFD control, after 16 weeks of gavage"}}}
{"smiles": "CC(CN)C(=O)O", "note": "(stereo not drawn) [BAIBA, β-aminoisobutyric acid]", "values": [{"measurement": "body weight", "setting": "high fat diet (HFD) mice [1]; [8]", "result": 47.8, "unit": "g"}, {"measurement": "body weight reduced by", "setting": "high fat diet (HFD) mice [1]; [9]", "result": 2.84, "unit": "%"}, {"measurement": "body fat mass", "setting": "high fat diet (HFD) mice [2]; [8]", "result": 5.38, "unit": "g"}, {"measurement": "body fat mass reduced by", "setting": "high fat diet (HFD) mice [2]; [9]", "result": 13.78, "unit": "%"}, {"measurement": "blood glucose level in OGTT, 15 min", "setting": "high fat diet (HFD) mice [3]; 15 min after glucose 1.5 g/kg by gavage", "result": 281.91, "unit": "mg/dL"}, {"measurement": "blood glucose level in OGTT, 30 min", "setting": "high fat diet (HFD) mice [3]; 30 min after glucose 1.5 g/kg by gavage", "result": 352.74, "unit": "mg/dL"}, {"measurement": "blood glucose level in OGTT, 60 min", "setting": "high fat diet (HFD) mice [3]; 60 min after glucose 1.5 g/kg by gavage", "result": 411.98, "unit": "mg/dL"}, {"measurement": "blood glucose level in OGTT, 90 min", "setting": "high fat diet (HFD) mice [3]; 90 min after glucose 1.5 g/kg by gavage", "result": 253.21, "unit": "mg/dL"}, {"measurement": "blood glucose level in OGTT, 120 min", "setting": "high fat diet (HFD) mice [3]; 120 min after glucose 1.5 g/kg by gavage", "result": 192.99, "unit": "mg/dL"}, {"measurement": "blood glucose level in OGTT compared with other groups, in words", "setting": "high fat diet (HFD) mice [3]; across time points", "result": "lower than that in HFD control group at each time point"}, {"measurement": "blood glucose level in OGTT, pre-dose", "setting": "high fat diet (HFD) mice [3]; overnight fasting, before glucose 1.5 g/kg by gavage", "result": 199.85, "unit": "mg/dL"}, {"measurement": "blood glucose level in ITT, 15 min", "setting": "high fat diet (HFD) mice [4]; 15 min after insulin 0.75 U/kg intraperitoneal", "result": 105.23, "unit": "mg/dL"}, {"measurement": "blood glucose level in ITT, 30 min", "setting": "high fat diet (HFD) mice [4]; 30 min after insulin 0.75 U/kg intraperitoneal", "result": 101.45, "unit": "mg/dL"}, {"measurement": "blood glucose level in ITT, 60 min", "setting": "high fat diet (HFD) mice [4]; 60 min after insulin 0.75 U/kg intraperitoneal", "result": 90.45, "unit": "mg/dL"}, {"measurement": "blood glucose level in ITT, 90 min", "setting": "high fat diet (HFD) mice [4]; 90 min after insulin 0.75 U/kg intraperitoneal", "result": 95.24, "unit": "mg/dL"}, {"measurement": "blood glucose level in ITT, 120 min", "setting": "high fat diet (HFD) mice [4]; 120 min after insulin 0.75 U/kg intraperitoneal", "result": 92.56, "unit": "mg/dL"}, {"measurement": "blood glucose level in ITT compared with other groups, in words", "setting": "high fat diet (HFD) mice [4]; across time points", "result": "higher than that in HFD control group at each time point"}, {"measurement": "blood glucose level in ITT, pre-dose", "setting": "high fat diet (HFD) mice [4]; empty stomach, before insulin 0.75 U/kg intraperitoneal", "result": 140.4, "unit": "mg/dL"}, {"measurement": "triglyceride (TG) level", "setting": "high fat diet (HFD) mice [5]", "result": 98.45, "unit": "mg/dL"}, {"measurement": "total cholesterol (TC) level", "setting": "high fat diet (HFD) mice [6]", "result": 220.65, "unit": "mg/dL"}, {"measurement": "leptin level", "setting": "high fat diet (HFD) mice [7]", "result": 278.12, "unit": "pg/mL"}]}
